Results published in patent US9708251B2, “Unsaturated fatty alcohol alkoxylates from natural oil metathesis” (Stepan Company, priority 2012, dated 2017).

What was measured:
Assay type in all cases: physicochemical
[1] = Emulsion stability testing of nonionic emulsifiers, Hallcomid solvent series; design: key: C = creamy; CO = creamy oil; O = oil; GC = gritty cream; NS = no separation; OC = oily cream; conditions: Bifenthrin 240 g/L in Hallcomid M-8-10, 34 ppm water
[2] = Emulsion stability testing of nonionic emulsifiers, aromatic solvent series; design: key to 24 h separation, appearance / 1 h separation, appearance / 1 h separation, amount: C = creamy; CO = creamy oil; O = oil; GC = gritty cream; NS = no separation; OC = oily cream; key to Spon. (spontaneity): G = good; F = fair; P = poor
[3] = Agrichemical solvent analysis: active solubility; conditions: room temperature
Method: Solvency strength of potential agrichemical solvents is evaluated by identifying the solubility level of three standard pesticides in the solvent by weight percent: 2,4-D acid, imidacloprid, and tebuconazole. […] The active material is also accurately weighed before addition. Initial amounts of active material are approximately: 2,4-D: 0.3 g; imidacloprid: 0.02 g; tebuconazole: 0.3 g. Solvent and pesticide active are combined, allowed to mix for 1 h at room temperature, and then inspected for the presence of undissolved active material. Additional active material is added in appropriately small increments until it no longer dissolves completely. This mixture is then stirred for 24 h at room temperature, and if the active has completely dissolved, additional active ingredient is added and the mixture is stirred another 24 h at room temperature. The percent solubility is recorded, and performance is compared with that of a standard agricultural solvent.

[4] = Surfactant phase behavior study (cross-polarized microscopy); conditions: room temperature
In short: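 Saturated analogs serve as comparators. Water dilutions of the product, stepped at 2-4% near transitions, equilibrated between slide and cover glass and assigned phase by cross-polarized microscopy texture at 100-400×, 20-22° C. Boundaries lie within ±5% actives; some samples checked by viscosity at 25° C.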

[5] = Emulsion stability testing of nonionic emulsifiers, Hallcomid solvent series; design: key to 24 h separation, appearance / 1 h separation, appearance / 1 h separation, amount: C = creamy; CO = creamy oil; O = oil; GC = gritty cream; NS = no separation; OC = oily cream; key to Spon. (spontaneity): G = good; F = fair; P = poor
[6] = Solubility evaluation: enhanced oil recovery (EOR); conditions: for Comments (appearance) / Soluble?: 1 wt. % sample, 1% sodium chloride brine
Method: Samples are prepared in a 10% stock solution and evaluated at 1 wt. % with a brine concentration of 1% sodium chloride. Replicate experiments are performed at each temperature with each sample.

[7] = Fabric cleaning: compaction (surfactant blends)
Method: The sample is formulated into surfactant blends having high actives content. Two experimental derivatives, A12-13 and A12-21, are evaluated.
In a first experiment, a three-component surfactant blend is prepared. This blend comprises the experimental sample (30 wt. %), a linear alkylbenzene sulfonate (15 wt. %), and an alkyl ether sulfate (15 wt. %). The appearance and viscosity of the blend are compared with those of similar three-component blends in which a standard alcohol ethoxylate replaces the experimental sample.
In a second experiment, a two-component surfactant blend is prepared in which the experimental sample and a linear alkylbenzene sulfonate are combined at a 1:1 actives ratio, beginning with a high actives blend having a cloudy appearance. Water is gradually added and mixed with the surfactant blend at room temperature. […]

[8] = 2,4-D ester 480 g/L in Exxsol D-110, 34 ppm water
[9] = 2,4-D ester 480 g/L in Exxsol D-110, 1000 ppm water
[10] = Bifenthrin 240 g/L in Aromatic 100, 34 ppm water
[11] = Bifenthrin 240 g/L in Aromatic 100, 1000 ppm water
[12] = Tebuconazole 360 g/L in N-methyl-2-pyrrolidone, 34 ppm water
[13] = Tebuconazole 360 g/L in N-methyl-2-pyrrolidone, 1000 ppm water
[14] = 2,4-D diester 480 g/L in Hallcomid M-8-10, 34 ppm water
[15] = 2,4-D diester 480 g/L in Hallcomid M-8-10, 1000 ppm water
[16] = Bifenthrin 240 g/L in Hallcomid M-8-10, 34 ppm water
[17] = Bifenthrin 240 g/L in Hallcomid M-8-10, 1000 ppm water
[18] = Tebuconazole 360 g/L in Hallcomid M-8-10, 34 ppm water
[19] = Tebuconazole 360 g/L in Hallcomid M-8-10, 1000 ppm water
[20] = three-component blend: sample 30 wt. %, linear alkylbenzene sulfonate 15 wt. %, alkyl ether sulfate 15 wt. %

For C=CCCCCCCCCOCCOCCOCCOCCOCCO [A10-10], the “24 h separation, amount” value [1] was “NS”, the “1 h separation, amount” value [2, 8] was 1.5 mL and the “1 h separation, appearance” value [2, 8] was “CO”. For the same compound, the “24 h separation, amount” value [2, 8] was 4.1 mL, the “24 h separation, appearance” value [2, 8] was “C” and the “Spon. (spontaneity)” value [2, 8] was “F”. For the same compound, the “1 h separation, amount” value [2, 9] was 4 mL, the “1 h separation, appearance” value [2, 9] was “CO” and the “24 h separation, amount” value [2, 9] was 1 O, 4 CO. The “Spon. (spontaneity)” value [2, 9] was “P”, the “1 h separation, amount” value [2, 10] was “NS” and the “24 h separation, amount” value [2, 10] was 3.5 mL. The “24 h separation, appearance” value [2, 10] was “C”, the “Spon. (spontaneity)” value [2, 10] was “F” and the “1 h separation, amount” value [2, 11] was 3 O, 5 CO. The “24 h separation, amount” value [2, 11] was 4.5 O, 1 CO, the “Spon. (spontaneity)” value [2, 11] was “F” and the “1 h separation, amount” value [2, 12] was 2 mL. The “1 h separation, appearance” value [2, 12] was “CO”, the “24 h separation, amount” value [2, 12] was 2.5 mL and the “24 h separation, appearance” value [2, 12] was “CO”. For the same compound, the “Spon. (spontaneity)” value [2, 12] was “P”, the “1 h separation, amount” value [2, 13] was 2.5 mL and the “1 h separation, appearance” value [2, 13] was “CO”. For the same compound, the “24 h separation, amount” value [2, 13] was 3 mL, the “24 h separation, appearance” value [2, 13] was “CO” and the “Spon. (spontaneity)” value [2, 13] was “P”. For the same compound, the “solubility of 2,4-D Acid in the solvent” value [3] was 29.8 weight percent, the “solubility of Imidacloprid in the solvent” value [3] was 2.8 weight percent and the “solubility of Tebuconazole in the solvent” value [3] was 13.0 weight percent. The “Isotropic Clear phase region” value ([4]; in deionized water) was 0-100 % Actives Level, the “1 h separation, amount” value [5, 14] was 5 mL and the “1 h separation, appearance” value [5, 14] was “C”. For the same compound, the “24 h separation, amount” value [5, 14] was 9.9 mL, the “24 h separation, appearance” value [5, 14] was “C” and the “Spon. (spontaneity)” value [5, 14] was “F”. For the same compound, the “1 h separation, amount” value [5, 15] was 6 mL, the “1 h separation, appearance” value [5, 15] was “C” and the “24 h separation, amount” value [5, 15] was 8 mL. For the same compound, the “24 h separation, appearance” value [5, 15] was “C”, the “Spon. (spontaneity)” value [5, 15] was “F” and the “1 h separation, amount” value [5, 16] was “NS”. For the same compound, the “Spon. (spontaneity)” value [5, 16] was “G”, the “1 h separation, amount” value [5, 17] was 6.5 mL and the “1 h separation, appearance” value [5, 17] was “CO”. The “24 h separation, amount” value [5, 17] was 4 O, 2 CO, the “Spon. (spontaneity)” value [5, 17] was “F” and the “1 h separation, amount” value [5, 18] was 2 mL. For the same compound, the “1 h separation, appearance” value [5, 18] was “C”, the “24 h separation, amount” value [5, 18] was 5 mL and the “24 h separation, appearance” value [5, 18] was “C”. For the same compound, the “Spon. (spontaneity)” value [5, 18] was “F”, the “1 h separation, amount” value [5, 19] was 3.5 mL and the “1 h separation, appearance” value [5, 19] was “C”. For the same compound, the “24 h separation, amount” value [5, 19] was 2 CO, 5 C and the “Spon. (spontaneity)” value [5, 19] was “F”.
With C=CCCCCCCCCOCCOCCOCCO [A10-7] the “24 h separation, amount” value [1] was “NS”, the “1 h separation, amount” value [2, 8] was 4 mL and the “1 h separation, appearance” value [2, 8] was “CO”. The “24 h separation, amount” value [2, 8] was 1 O, 4.5 CO, the “Spon. (spontaneity)” value [2, 8] was “P” and the “1 h separation, amount” value [2, 9] was 4 mL. The “1 h separation, appearance” value [2, 9] was “O”, the “24 h separation, amount” value [2, 9] was 4 mL and the “24 h separation, appearance” value [2, 9] was “O”. The “Spon. (spontaneity)” value [2, 9] was “P”, the “1 h separation, amount” value [2, 10] was 7 mL and the “1 h separation, appearance” value [2, 10] was “CO”. The “24 h separation, amount” value [2, 10] was 6.5 mL, the “24 h separation, appearance” value [2, 10] was “CO” and the “Spon. (spontaneity)” value [2, 10] was “P”. For the same compound, the “1 h separation, amount” value [2, 11] was 6 mL, the “1 h separation, appearance” value [2, 11] was “O” and the “24 h separation, amount” value [2, 11] was 5 mL. For the same compound, the “24 h separation, appearance” value [2, 11] was “O”, the “Spon. (spontaneity)” value [2, 11] was “P” and the “1 h separation, amount” value [2, 12] was 2 mL. The “1 h separation, appearance” value [2, 12] was “GC”, the “24 h separation, amount” value [2, 12] was 3 mL and the “24 h separation, appearance” value [2, 12] was “GC”. For the same compound, the “Spon. (spontaneity)” value [2, 12] was “P”, the “1 h separation, amount” value [2, 13] was 2.5 mL and the “1 h separation, appearance” value [2, 13] was “GC”. The “24 h separation, amount” value [2, 13] was 3 mL, the “24 h separation, appearance” value [2, 13] was “GC” and the “Spon. (spontaneity)” value [2, 13] was “P”. For the same compound, the “solubility of 2,4-D Acid in the solvent” value [3] was 29.5 weight percent, the “solubility of Imidacloprid in the solvent” value [3] was 2.9 weight percent and the “solubility of Tebuconazole in the solvent” value [3] was 13.5 weight percent. The “combined isotropic phases (clear and opaque), share of the total” value [4] was “about 50%”, the “Isotropic Clear phase region” value ([4]; in deionized water) was 70-100 % Actives Level and the “Isotropic Opaque phase region” value ([4]; in deionized water) was 0-20 % Actives Level. For the same compound, the Lamellar phase region ([4]; in deionized water) was 20-70 % Actives Level, the “Comments (appearance)” value ([6]; 20.7 °C) was “white, opaque” and the “Soluble?” value ([6]; 20.7 °C) was “no”. The “Comments (appearance)” value ([6]; 51.5 °C) was “white, opaque”, the “Soluble?” value ([6]; 51.5 °C) was “no” and the “Comments (appearance)” value ([6]; 56.1 °C) was “white, hazy”. The “Soluble?” value ([6]; 56.1 °C) was “no”, the “Overall performance (EOR solubility)” value ([6]; versus control fatty alcohol ethoxylate) was “Overall performance of A10-7: Equal to control” and the “1 h separation, amount” value [5, 14] was 5.6 mL. For the same compound, the “1 h separation, appearance” value [5, 14] was “C”, the “24 h separation, amount” value [5, 14] was 10 mL and the “24 h separation, appearance” value [5, 14] was “C”. For the same compound, the “Spon. (spontaneity)” value [5, 14] was “F”, the “1 h separation, amount” value [5, 15] was 6 mL and the “1 h separation, appearance” value [5, 15] was “C”. For the same compound, the “24 h separation, amount” value [5, 15] was 7.5 mL, the “24 h separation, appearance” value [5, 15] was “C” and the “Spon. (spontaneity)” value [5, 15] was “F”. The “1 h separation, amount” value [5, 16] was “NS”, the “Spon. (spontaneity)” value [5, 16] was “F” and the “1 h separation, amount” value [5, 17] was 10 mL. The “1 h separation, appearance” value [5, 17] was “CO”, the “24 h separation, amount” value [5, 17] was 3 O, 3 CO and the “Spon. (spontaneity)” value [5, 17] was “P”. The “1 h separation, amount” value [5, 18] was 2.5 mL, the “1 h separation, appearance” value [5, 18] was “C” and the “24 h separation, amount” value [5, 18] was 5 mL. The “24 h separation, appearance” value [5, 18] was “C”, the “Spon. (spontaneity)” value [5, 18] was “F” and the “1 h separation, amount” value [5, 19] was 3 mL. The “1 h separation, appearance” value [5, 19] was “C”, the “24 h separation, amount” value [5, 19] was 5 mL and the “24 h separation, appearance” value [5, 19] was “C”. The “Spon. (spontaneity)” value [5, 19] was “F”.
With CCC=CCCCCCCCCOCCOCCOCCOCCOCCOCCOCCOCCOCCO (mixture of isomers) [A12-21] the “Appearance, 25° C.” value [7, 20] was “cloudy, flowable gel”, the Viscosity [7, 20] was 5600 cPs and the “% Actives at which blend is clear and homogeneous at 25° C.” value ([7]; two-component blend with linear alkylbenzene sulfonate, 1:1 actives ratio) was 51 % Actives.
